The target in one assay is T1, EGFR T790M L858R (Homo sapiens, UniProt P00533, L858R/T790M).
T1 construct: purchased Life Technologies PV4879
The assay can be described thus: EGFR T790M L858R biochemical assay (Caliper mobility shift). Particulars: 5 μM ATP; apparent Ki (Morrison fit) converted by Cheng-Prusoff, Km of ATP 1.3 μM. In a few lines:
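Reactions run 30 minutes at room temperature (22 °C), stopped with 80 mM EDTA. Phosphorylated product and substrate separated electrophoretically and quantified by Caliper mobility shift.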

A further assay addresses T2, EGFR del746-750 T790M (Homo sapiens, UniProt P00533, DEL746-750/T790M).
T2 construct: purchased Carna Biosciences 08-528
The assay can be described thus: EGFR del746-750 T790M biochemical assay (Caliper mobility shift). The following applies: 5 μM ATP; apparent Ki (Morrison fit) converted by Cheng-Prusoff, Km of ATP 2.1 μM; read-out: EGFR(T790M/d746-750) Ki. In a few lines: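 Kinase reactions ran 30 min at room temperature (22 °C), then were stopped with 80 mM EDTA. Phosphorylated product and substrate were separated electrophoretically and quantified by Caliper mobility shift.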

The target of assay [1] is T3, phosphor-EGFR in H1975(L585R/T790M) mutant EGFR expressing cells (Homo sapiens, UniProt P00533, L858R/T790M).
T3 construct: host or cells: NCI-H1975
T3 sequence (P00533 25-1210 T790M/L858R): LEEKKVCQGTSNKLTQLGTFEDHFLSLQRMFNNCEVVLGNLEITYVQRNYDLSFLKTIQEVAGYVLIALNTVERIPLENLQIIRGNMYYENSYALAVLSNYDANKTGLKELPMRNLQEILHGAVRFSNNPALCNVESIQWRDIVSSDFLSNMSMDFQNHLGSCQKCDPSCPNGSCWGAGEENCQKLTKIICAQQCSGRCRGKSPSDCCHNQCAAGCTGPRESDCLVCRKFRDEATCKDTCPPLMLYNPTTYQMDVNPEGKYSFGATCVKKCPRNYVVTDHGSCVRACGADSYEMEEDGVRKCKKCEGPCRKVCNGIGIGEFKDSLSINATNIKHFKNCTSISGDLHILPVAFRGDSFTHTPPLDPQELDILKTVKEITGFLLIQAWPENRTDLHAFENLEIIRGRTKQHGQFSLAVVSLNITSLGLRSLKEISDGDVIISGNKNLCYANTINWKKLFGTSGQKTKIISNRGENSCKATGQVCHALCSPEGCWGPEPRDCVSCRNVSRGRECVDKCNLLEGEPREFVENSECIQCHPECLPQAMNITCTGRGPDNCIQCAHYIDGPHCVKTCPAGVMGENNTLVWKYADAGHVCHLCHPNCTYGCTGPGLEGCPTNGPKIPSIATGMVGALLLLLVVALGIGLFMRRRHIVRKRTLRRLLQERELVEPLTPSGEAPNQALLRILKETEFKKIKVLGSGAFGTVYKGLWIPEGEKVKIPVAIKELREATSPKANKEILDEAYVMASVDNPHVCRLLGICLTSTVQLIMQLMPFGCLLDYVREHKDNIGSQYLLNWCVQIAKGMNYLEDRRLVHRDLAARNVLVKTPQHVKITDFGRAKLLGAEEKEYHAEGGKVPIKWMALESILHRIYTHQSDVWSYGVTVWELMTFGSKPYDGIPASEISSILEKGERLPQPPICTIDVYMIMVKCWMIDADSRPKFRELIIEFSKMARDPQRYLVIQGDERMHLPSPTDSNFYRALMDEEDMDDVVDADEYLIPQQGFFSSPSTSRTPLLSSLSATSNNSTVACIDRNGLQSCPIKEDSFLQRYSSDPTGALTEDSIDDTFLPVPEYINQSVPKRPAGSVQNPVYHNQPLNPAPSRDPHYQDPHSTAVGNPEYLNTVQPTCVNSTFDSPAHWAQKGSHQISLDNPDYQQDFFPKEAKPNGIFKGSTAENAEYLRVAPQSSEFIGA
Nature of the assay: H1975 pEGFR MSD cellular assay. Format: cell-based. Particulars: NCI-H1975 cells, serum starved, 1 hour compound incubation, pEGFR Tyr1068 MSD; read-out: HI975 pEGFR EC50. The gist of the method:
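NCI-H1975 cells, 30,000/well, serum-starved overnight, then treated 1 hour at 37° C with serially diluted compounds in serum-free medium (0.5% DMSO). Lysates captured on anti-phospho-EGFR plates overnight at 4° C, detected with SULFO-TAG anti-total EGFR by electrochemiluminescence. Inhibition vs untreated controls; EC50 from 4-parameter logistic fit.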

In assay [2] the test system is H1975 (EGFR T790M/L858R) cell proliferation. The assay can be described thus: H1975 proliferation assay (Cell Titer-Glo). The format is cell-based. The following applies: Homo sapiens, NCI-H1975, 72 h, NCI-H1975 cells, 72 hour incubation, read-out: H1975 antiproliferative EC50. Here is the method:
H1975 Proliferation Assays
All cell culture reagents were purchased from Invitrogen/Gibco. Cells are cultured at 37° C. at 5% CO2 and split as recommended by ATCC.

pEC50, pKi: −log10 of the molar value. Where only a bound is given, the exact number is not on record here.

Experimental findings from patent publication US9951064B2, “Azaindazole compounds as inhibitors of T790M containing EGFR mutants” (Genentech, Inc., priority 2013, dated 2018) are described below.

T2 sequence (P00533 with tags, fused parts or gaps DEL746-750/T790M limits assumed): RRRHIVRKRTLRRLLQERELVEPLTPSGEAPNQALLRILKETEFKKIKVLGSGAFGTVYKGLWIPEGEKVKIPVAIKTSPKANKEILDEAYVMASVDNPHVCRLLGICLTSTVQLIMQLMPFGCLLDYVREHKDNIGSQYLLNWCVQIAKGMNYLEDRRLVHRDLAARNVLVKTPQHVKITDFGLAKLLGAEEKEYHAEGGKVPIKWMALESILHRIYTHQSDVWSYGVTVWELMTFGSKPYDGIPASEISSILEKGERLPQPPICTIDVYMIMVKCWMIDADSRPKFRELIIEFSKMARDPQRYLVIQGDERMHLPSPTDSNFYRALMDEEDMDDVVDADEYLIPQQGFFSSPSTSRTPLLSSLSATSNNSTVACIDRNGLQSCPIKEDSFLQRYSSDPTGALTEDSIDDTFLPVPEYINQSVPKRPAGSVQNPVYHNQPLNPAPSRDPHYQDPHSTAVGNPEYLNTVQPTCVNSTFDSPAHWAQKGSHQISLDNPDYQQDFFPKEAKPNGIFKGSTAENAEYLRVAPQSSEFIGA
T1 sequence (P00533 25-1210 T790M/L858R): as the sequence (P00533 25-1210 T790M/L858R) above

For `CC(C)n1nc(N2CCC3(COC3)C2)c2cnc(Nc3ccnc(-c4cnn(S(=O)(=O)C5CC5)c4)n3)cc21` [Example 120, N-(2-(1-(Cyclopropylsulfonyl)-1H-pyrazol-4-yl)pyrimidin-4-yl)-1-isopropyl-3-(2-oxa-6-azaspiro[3.4]octan-6-yl)-1H-pyrazolo[4,3-c]pyridin-6-amine], the pKi on EGFR T790M L858R is 8.85; at EGFR del746-750 T790M, 8.89. In addition, the pEC50 was 7.48 in assay [1] and 6.37 in assay [2].
With `CC(C)n1nc(N2CC(CC#N)C2)c2cnc(Nc3ccnc(-c4cnn(S(=O)(=O)C5CC5)c4)n3)cc21` [Example 121, 2-(1-(6-(2-(1-(Cyclopropylsulfonyl)-1H-pyrazol-4-yl)pyrimidin-4-ylamino)-1-isopropyl-1H-pyrazolo[4,3-c]pyridin-3-yl)azetidin-3-yl)acetonitrile], the pKi is 9.10 on EGFR T790M L858R and 9.15 on EGFR del746-750 T790M. Moreover, the pEC50 was 7.71 in assay [1] and 6.74 in assay [2].
For the compound `CC(C)n1nc(N2CC(C)(CO)C2)c2cnc(Nc3ccnc(-c4cnn(S(=O)(=O)C5CC5)c4)n3)cc21` [Example 122, (1-(6-(2-(1-(Cyclopropylsulfonyl)-1H-pyrazol-4-yl)pyrimidin-4-ylamino)-1-isopropyl-1H-pyrazolo[4,3-c]pyridin-3-yl)-3-methylazetidin-3-yl)methanol], the values for the pKi at EGFR T790M L858R and on EGFR del746-750 T790M were 8.92 and 9.00, respectively. The pEC50 is 7.06 in assay [1] and 6.21 in assay [2].
With `CC(C)n1nc(N2CC[C@H](O)C2)c2cnc(Nc3ccnc(-c4cnn(S(=O)(=O)C5CC5)c4)n3)cc21` [Example 123, (S)-1-(6-(2-(1-(Cyclopropylsulfonyl)-1H-pyrazol-4-yl)pyrimidin-4-ylamino)-1-isopropyl-1H-pyrazolo[4,3-c]pyridin-3-yl)pyrrolidin-3-ol], the pKi at EGFR T790M L858R and at EGFR del746-750 T790M was 9.22 in each case. In addition, the pEC50 was 8.36 in assay [1] and 6.70 in assay [2].
With `CC(C)n1nc(N2CC(O)(CO)C2)c2cnc(Nc3ccnc(-c4cnn(S(=O)(=O)C5CC5)c4)n3)cc21` [Example 124, 1-(6-(2-(1-(Cyclopropylsulfonyl)-1H-pyrazol-4-yl)pyrimidin-4-ylamino)-1-isopropyl-1H-pyrazolo[4,3-c]pyridin-3-yl)-3-(hydroxymethyl)azetidin-3-ol], the pKi at EGFR T790M L858R and on EGFR del746-750 T790M was 9.15 each time. In addition, the pEC50 in assay [1] is 6.61; in assay [2], 6.18.
Consider `CC(C)n1nc(NCCS(C)(=N)=O)c2cnc(Nc3ccnc(-c4cnn(S(=O)(=O)C5CC5)c4)n3)cc21` (stereo not drawn) [Example 125, N^6-(2-(1-(Cyclopropylsulfonyl)-1H-pyrazol-4-yl)pyrimidin-4-yl)-1-isopropyl-N^3-(2-(S-methylsulfonimidoyl)ethyl)-1H-pyrazolo[4,3-c]pyridine-3.6-diamine], for which the pKi was 8.96 on EGFR T790M L858R and 9.10 on EGFR del746-750 T790M. Further, the pEC50 is 5.55 in assay [1] and under 5.00 in assay [2].
The matching figures for `CC(C)n1nc(N2CC3(CN(CC(F)(F)F)C3)C2)c2cnc(Nc3ccnc(-c4cnn(S(=O)(=O)C5CC5)c4)n3)cc21` [Example 126, N-(2-(1-(Cyclopropylsulfonyl)-1H-pyrazol-4-yl)pyrimidin-4-yl)-1-isopropyl-3-(6-(2,2,2-trifluoroethyl)-2,6-diazaspiro[3.3]heptan-2-yl)-1H-pyrazolo[4,3-c]pyridin-6-amine]: 8.28, 8.34, 7.10 and 5.94.
For `CC(C)n1nc(N2CCO[C@H](CO)C2)c2cnc(Nc3ccnc(N4CC[C@H](O)[C@H](F)C4)n3)cc21` [Example 132, cis-3-Fluoro-1-(4-(3-((S)-2-(hydroxymethyl)morpholino)-1-isopropyl-1H-pyrazolo[4,3-c]pyridin-6-ylamino)pyrimidin-2-yl)piperidin-4-ol], the pKi was 8.31 on EGFR T790M L858R and 7.84 at EGFR del746-750 T790M. Further, the pEC50 in assay [1] was 5.85; in assay [2], under 5.00.
The matching figures for `CC(C)n1nc(N2CC(C#N)CC2=O)c2cnc(Nc3ccnc(N4CCC(C)(O)CC4)n3)cc21` (stereo not drawn) [Example 137, 1-(6-(2-(4-Hydroxy-4-methylpiperidin-1-yl)pyrimidin-4-ylamino)-1-isopropyl-1H-pyrazolo[4,3-c]pyridin-3-yl)-5-oxopyrrolidine-3-carbonitrile]: 8.00, 7.57, 6.15 and 5.96.
In the same order, the values of `CC(C)n1nc(N2CC3(C2)C[S+]([O-])C3)c2cnc(Nc3ccnc(N4CCC(C)(O)CC4)n3)cc21` [Example 138, 6-(6-((2-(4-Hydroxy-4-methylpiperidin-1-yl)pyrimidin-4-yl)amino)-1-isopropyl-1H-pyrazolo[4,3-c]pyridin-3-yl)-2-thia-6-azaspiro[3.3]heptane 2-oxide] are 8.34, 7.71, 5.85 and 5.41.
On to `CC(C)n1nc(NCCC2OCC(N)CO2)c2cnc(Nc3ccnc(N4CCC(C)(O)CC4)n3)cc21` (stereo not drawn) [Example 139, 1-(4-(3-(2-(5-Amino-1,3-dioxan-2-yl)ethylamino)-1-isopropyl-1H-pyrazol[4,3-c]pyridin-6-ylamino)pyrimidin-2-yl)-4-methylpiperidin-4-ol], for which the pKi was 8.15 at EGFR T790M L858R and 7.74 on EGFR del746-750 T790M. The results for the pEC50 in assay [1] and in assay [2] were 5.22 and under 5.00, respectively.
The matching figures for `CC(n1nc(N2CC[C@@H](O)C2)c2cnc(Nc3ccnc(N4CCC(C)(O)CC4)n3)cc21)C(F)(F)F` (stereo partly drawn) [Example 143, 1-(4-(3-((R)-3-Hydroxypyrrolidin-1-yl)-1-(1,1,1-trifluoropropan-2-yl)-1H-pyrazolo[4,3-c]pyridin-6-ylamino)pyrimidin-2-yl)-4-methylpiperidin-4-ol]: 8.54, 7.95, 6.66 and 6.05.
As for `CCC(C)n1nc(N2CC[C@H](C(N)=O)C2)c2cnc(Nc3ccnc(N4CCC(C)(O)CC4)n3)cc21` (stereo partly drawn) [Example 144, (3S)-1-(1-sec-Butyl-6-(2-(4-hydroxy-4-methylpiperidin-1-yl)pyrimidin-4-ylamino)-1H-pyrazolo[4,3-c]pyridin-3-yl)pyrrolidine-3-carboxamide], the pKi at EGFR T790M L858R is 8.74; at EGFR del746-750 T790M, 8.68. Further, the pEC50 is 6.03 in assay [1] and 5.66 in assay [2].
For `CCC(C)n1nc(N2CC[C@@H](C(N)=O)C2)c2cnc(Nc3ccnc(N4CCC(C)(O)CC4)n3)cc21` (stereo partly drawn) [Example 145, (3R)-1-(1-sec-Butyl-6-(2-(4-hydroxy-4-methylpiperidin-1-yl)pyrimidin-4-ylamino)-1H-pyrazolo[4,3-c]pyridin-3-yl)pyrrolidine-3-carboxamide], the figures for the pKi at EGFR T790M L858R and at EGFR del746-750 T790M were 8.85 and 8.80, respectively. The pEC50 was 6.04 in assay [1] and 5.14 in assay [2].
In the same order, the values of `CCC(C)n1nc(N2CC(F)(F)C2)c2cnc(Nc3ccnc(N4CCC(C)(O)CC4)n3)cc21` (stereo not drawn) [Example 146, 1-(4-(1-sec-Butyl-3-(3,3-difluoroazetidin-1-yl)-1H-pyrazolo[4,3-c]pyridin-6-ylamino)pyrimidin-2-yl)-4-methylpiperidin-4-ol] are 8.60, 8.31, 6.56 and 5.79.
In the same order, the values of `CC(C)n1nc(N2CC(C(C)(C)O)C2)c2cnc(Nc3ccnc(-c4cnn(S(=O)(=O)C5CC5)c4)n3)cc21` [Example 149, 2-(1-(6-(2-(1-(Cyclopropylsulfonyl)-1H-pyrazol-4-yl)pyrimidin-4-ylamino)-1-isopropyl-1H-pyrazolo[4,3-c]pyridin-3-yl)azetidin-3-yl)propan-2-ol] are 8.68, 8.92, 7.28 and 6.37.
As for `CC(C)n1nc(N2CCCNC2=O)c2cnc(Nc3ccnc(-c4cnn(S(=O)(=O)C5CC5)c4)n3)cc21` [Example 150, 3-(6-(2-(1-(Cyclopropylsulfonyl)-1H-pyrazol-4-yl)pyrimidin-4-ylamino)-1-isopropyl-1H-pyrazolo[4,3-c]pyridin-3-yl)-tetrahydropyrimidin-2(1H)-one], the pKi was 8.31 on EGFR T790M L858R and 8.44 at EGFR del746-750 T790M. Also, the pEC50 was 6.61 in assay [1] and 6.12 in assay [2].
In the same order, the values of `CCN1CCN(c2nn(C(C)C)c3cc(Nc4ccnc(-c5cnn(S(=O)(=O)C6CC6)c5)n4)ncc23)C1=O` [Example 151, 1-(6-(2-(1-(Cyclopropylsulfonyl)-1H-pyrazol-4-yl)pyrimidin-4-ylamino)-1-isopropyl-1H-pyrazolo[4,3-c]pyridin-3-yl)-3-ethylimidazolidin-2-one] are 8.06, 8.20, 6.44 and 6.03.

For orientation: pEC50 means the negative decadic logarithm of the EC50, by convention in mol/L.
